{"source": "paper PMC6402191", "about": "(Clinical and Translational Science, 2017)", "key": {"MATE2-K": {"biological_target": "MATE2-K (Homo sapiens, UniProt Q86VL8)", "sequence (Q86VL8 1-566 isoform Q86VL8-3)": "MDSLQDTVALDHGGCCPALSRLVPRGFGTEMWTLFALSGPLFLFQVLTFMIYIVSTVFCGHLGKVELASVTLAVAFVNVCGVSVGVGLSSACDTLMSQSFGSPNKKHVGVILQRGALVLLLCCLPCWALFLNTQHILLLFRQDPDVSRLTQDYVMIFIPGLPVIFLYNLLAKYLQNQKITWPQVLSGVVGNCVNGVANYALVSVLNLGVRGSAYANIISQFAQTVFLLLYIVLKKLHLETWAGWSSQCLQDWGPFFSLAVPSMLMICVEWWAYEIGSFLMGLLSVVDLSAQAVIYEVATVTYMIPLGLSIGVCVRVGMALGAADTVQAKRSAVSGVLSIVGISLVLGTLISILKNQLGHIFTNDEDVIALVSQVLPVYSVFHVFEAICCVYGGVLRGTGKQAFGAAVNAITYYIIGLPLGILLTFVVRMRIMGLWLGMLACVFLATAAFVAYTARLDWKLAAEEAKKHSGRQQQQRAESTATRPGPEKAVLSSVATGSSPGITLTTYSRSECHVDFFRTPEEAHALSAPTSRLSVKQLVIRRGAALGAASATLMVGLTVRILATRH", "assay": "Uptake of baricitinib into MATE2-K-transfected HEK cells", "assay_type": "in vitro ADME"}, "P-gp": {"biological_target": "P-gp (Homo sapiens, UniProt P08183)", "sequence (P08183 whole entry)": "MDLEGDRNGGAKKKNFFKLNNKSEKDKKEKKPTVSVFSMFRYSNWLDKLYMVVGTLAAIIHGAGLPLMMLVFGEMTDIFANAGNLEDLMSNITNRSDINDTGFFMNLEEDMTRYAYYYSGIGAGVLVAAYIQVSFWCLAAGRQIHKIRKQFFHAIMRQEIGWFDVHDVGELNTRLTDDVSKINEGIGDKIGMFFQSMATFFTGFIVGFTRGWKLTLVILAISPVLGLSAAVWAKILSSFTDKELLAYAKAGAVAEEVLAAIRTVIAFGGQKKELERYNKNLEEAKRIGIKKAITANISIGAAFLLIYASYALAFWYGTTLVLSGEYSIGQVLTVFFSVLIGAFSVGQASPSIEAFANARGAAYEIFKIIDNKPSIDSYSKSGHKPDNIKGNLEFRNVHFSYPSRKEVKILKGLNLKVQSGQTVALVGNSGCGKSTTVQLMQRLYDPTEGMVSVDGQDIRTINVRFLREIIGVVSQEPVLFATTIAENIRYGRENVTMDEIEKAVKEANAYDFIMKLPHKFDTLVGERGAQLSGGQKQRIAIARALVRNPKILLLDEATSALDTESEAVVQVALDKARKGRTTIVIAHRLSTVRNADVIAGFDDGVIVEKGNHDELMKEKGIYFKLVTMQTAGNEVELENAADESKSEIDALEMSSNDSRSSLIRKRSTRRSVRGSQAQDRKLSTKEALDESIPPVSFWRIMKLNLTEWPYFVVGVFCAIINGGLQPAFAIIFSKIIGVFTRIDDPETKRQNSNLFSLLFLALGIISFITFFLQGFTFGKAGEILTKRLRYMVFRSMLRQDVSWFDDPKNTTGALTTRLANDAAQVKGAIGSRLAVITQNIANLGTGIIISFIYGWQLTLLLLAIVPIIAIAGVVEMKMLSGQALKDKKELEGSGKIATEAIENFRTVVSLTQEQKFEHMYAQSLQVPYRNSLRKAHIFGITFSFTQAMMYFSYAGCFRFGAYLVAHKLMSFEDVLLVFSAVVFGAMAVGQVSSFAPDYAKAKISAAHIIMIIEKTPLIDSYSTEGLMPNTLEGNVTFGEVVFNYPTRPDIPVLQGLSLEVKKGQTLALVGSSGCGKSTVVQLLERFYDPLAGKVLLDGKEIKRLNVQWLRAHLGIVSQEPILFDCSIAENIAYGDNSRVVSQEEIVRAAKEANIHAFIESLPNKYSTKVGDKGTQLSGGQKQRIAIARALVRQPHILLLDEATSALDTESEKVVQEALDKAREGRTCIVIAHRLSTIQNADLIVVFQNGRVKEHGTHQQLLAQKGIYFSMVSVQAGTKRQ", "assay": "Bidirectional transport of baricitinib in MDCK-MDR1 cells", "assay_type": "in vitro ADME"}, "BCRP": {"biological_target": "T1, BCRP (Homo sapiens, UniProt Q9UNQ0)", "T1 sequence (Q9UNQ0 1-655)": "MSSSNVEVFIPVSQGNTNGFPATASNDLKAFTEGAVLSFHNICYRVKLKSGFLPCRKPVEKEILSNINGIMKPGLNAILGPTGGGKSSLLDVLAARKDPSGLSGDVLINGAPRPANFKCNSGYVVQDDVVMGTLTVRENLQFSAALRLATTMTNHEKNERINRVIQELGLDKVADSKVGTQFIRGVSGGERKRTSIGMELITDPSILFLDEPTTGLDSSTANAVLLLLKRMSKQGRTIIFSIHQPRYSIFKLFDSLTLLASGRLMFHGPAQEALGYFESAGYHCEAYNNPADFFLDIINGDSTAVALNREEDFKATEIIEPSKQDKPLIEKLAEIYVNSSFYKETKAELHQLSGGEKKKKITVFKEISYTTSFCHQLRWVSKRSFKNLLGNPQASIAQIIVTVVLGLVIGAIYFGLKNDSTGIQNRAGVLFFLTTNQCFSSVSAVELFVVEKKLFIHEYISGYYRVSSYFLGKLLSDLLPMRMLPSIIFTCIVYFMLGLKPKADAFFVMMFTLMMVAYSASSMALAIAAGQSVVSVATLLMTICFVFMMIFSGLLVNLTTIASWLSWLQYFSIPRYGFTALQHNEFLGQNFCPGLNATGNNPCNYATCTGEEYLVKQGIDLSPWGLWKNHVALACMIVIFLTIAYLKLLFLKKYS", "assay": "Bidirectional transport of baricitinib in MDCK-BCRP cells", "assay_type": "in vitro ADME"}, "OATP1B1": {"biological_target": "T2, OATP1B1 (Homo sapiens, UniProt Q9Y6L6)", "T2 sequence (Q9Y6L6 1-691)": "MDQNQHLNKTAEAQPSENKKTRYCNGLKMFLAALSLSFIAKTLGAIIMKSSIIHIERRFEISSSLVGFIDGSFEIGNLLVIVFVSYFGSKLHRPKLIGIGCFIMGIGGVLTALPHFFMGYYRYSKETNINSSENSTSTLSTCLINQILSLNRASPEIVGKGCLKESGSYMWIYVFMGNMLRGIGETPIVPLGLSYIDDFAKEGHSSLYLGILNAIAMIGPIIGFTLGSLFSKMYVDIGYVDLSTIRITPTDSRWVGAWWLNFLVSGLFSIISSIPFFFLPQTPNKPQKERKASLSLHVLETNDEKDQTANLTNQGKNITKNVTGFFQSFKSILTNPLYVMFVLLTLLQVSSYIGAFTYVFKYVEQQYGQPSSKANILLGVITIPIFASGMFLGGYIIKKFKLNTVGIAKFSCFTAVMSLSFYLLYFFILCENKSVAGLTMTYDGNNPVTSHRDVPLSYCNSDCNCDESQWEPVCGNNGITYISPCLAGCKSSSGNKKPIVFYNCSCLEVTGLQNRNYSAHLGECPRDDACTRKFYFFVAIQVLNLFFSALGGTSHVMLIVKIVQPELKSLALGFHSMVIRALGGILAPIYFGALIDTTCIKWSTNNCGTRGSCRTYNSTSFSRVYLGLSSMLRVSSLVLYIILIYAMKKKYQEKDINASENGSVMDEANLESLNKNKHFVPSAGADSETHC", "assay": "Baricitinib substrate study in OATP1B1-transfected HEK-PEAK cells", "assay_type": "in vitro ADME"}, "[1]": {"assay": "Clinical baricitinib-probenecid DDI study in healthy subjects", "assay_type": "in vivo, human"}, "OAT3": {"biological_target": "T3, OAT3 (Homo sapiens, UniProt Q8TCC7)", "T3 sequence (Q8TCC7 1-542)": "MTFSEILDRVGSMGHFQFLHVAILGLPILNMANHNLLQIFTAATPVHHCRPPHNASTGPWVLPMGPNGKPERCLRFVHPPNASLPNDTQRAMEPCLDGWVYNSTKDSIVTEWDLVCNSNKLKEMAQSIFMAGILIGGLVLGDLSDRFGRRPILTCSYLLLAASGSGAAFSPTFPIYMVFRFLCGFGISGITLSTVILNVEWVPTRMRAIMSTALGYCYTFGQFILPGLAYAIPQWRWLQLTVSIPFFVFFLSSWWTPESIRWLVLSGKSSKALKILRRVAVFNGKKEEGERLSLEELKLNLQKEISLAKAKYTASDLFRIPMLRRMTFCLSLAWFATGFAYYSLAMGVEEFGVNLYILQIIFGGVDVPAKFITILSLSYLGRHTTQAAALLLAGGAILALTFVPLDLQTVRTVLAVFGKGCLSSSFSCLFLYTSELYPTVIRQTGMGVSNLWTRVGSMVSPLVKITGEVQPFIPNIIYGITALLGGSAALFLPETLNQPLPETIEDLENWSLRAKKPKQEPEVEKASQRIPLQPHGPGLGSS", "assay": "PBPK DDI simulations of baricitinib with OAT3 inhibitors"}, "[2]": {"assay": "Physicochemical input parameters"}, "Plasma protein binding": {"assay": "Plasma protein binding", "assay_type": "in vitro ADME", "settings": "human"}, "[3]": {"assay": "Pharmacokinetic input parameters of the PBPK models", "assay_type": "in vivo, human", "settings": "fitted to match clinical data"}, "[4]": {"settings": "cited from earlier work"}, "[5]": {"settings": "observed, listed as baricitinib"}}, "note": "“And” between values parts separate entries of the source, which are not always exact repeats. Equal entries are not always repeated. “Also recorded” adds a separate entry of the source. Where two headings read alike, the source gives them in different places.", "data": [{"smiles": "CCS(=O)(=O)N1CC(CC#N)(n2cc(-c3ncnc4[nH]ccc34)cn2)C1", "note": "[Baricitinib]", "values": [{"measurement": "MATE2-K substrate", "setting": "MATE2-K", "result": "substrate of MATE2‐K"}, {"measurement": "MATE2‐K Vmax", "setting": "MATE2-K", "result": "1315 ± 129", "unit": "pmol/min/mg protein"}, {"measurement": "Uptake into MATE2-K cells relative to control cells", "setting": "MATE2-K; 0.5 min", "result": "approximately three times greater"}, {"measurement": "MATE2‐K Vmax", "setting": "MATE2-K; PBPK input", "result": 657.5, "unit": "pmol/min/10^6 cells"}, {"measurement": "P-gp substrate", "setting": "P-gp", "result": "P‐gp substrate"}, {"measurement": "Papp at 5 μM", "setting": "P-gp; dog, MDCK", "result": 6.6, "unit": "×10⁻⁶ cm/s"}, {"measurement": "Papp A→B at 5 µM", "setting": "P-gp; dog, MDCK-MDR1", "result": 0.9, "unit": "×10⁻⁶ cm/s"}, {"measurement": "Papp B→A at 5 µM", "setting": "P-gp; dog, MDCK-MDR1", "result": 35.2, "unit": "×10⁻⁶ cm/s"}, {"measurement": "BCRP substrate", "setting": "BCRP", "result": "substrate of BCRP"}, {"measurement": "Papp A→B at 5 µM", "setting": "BCRP; dog", "result": 0.83, "unit": "×10⁻⁶ cm/s"}, {"measurement": "Papp B→A at 5 µM", "setting": "BCRP; dog", "result": 10.1, "unit": "×10⁻⁶ cm/s"}, {"measurement": "OATP1B1 substrate", "setting": "OATP1B1", "result": "not a substrate"}, {"measurement": "Ae(0‐48), arithmetic mean (SD)", "setting": "[1]; 4 mg baricitinib + probenecid", "result": "1.57 (0.191) mg"}, {"measurement": "CL/F, geometric mean (CV)", "setting": "[1]; 4 mg baricitinib + probenecid", "result": "8.33 (14) L/h"}, {"measurement": "Ae(0‐48), arithmetic mean (SD)", "setting": "[1]; 4 mg baricitinib only", "result": "2.60 (0.399) mg"}, {"measurement": "CL/F, geometric mean (CV)", "setting": "[1]; 4 mg baricitinib only", "result": "16.9 (22) L/h"}, {"measurement": "tolerability", "setting": "[1]; healthy subjects, all drug-related treatment-emergent AEs mild", "result": "well tolerated"}, {"measurement": "increase of half-life in the presence of probenecid", "setting": "[1]; human, in vivo", "result": 63, "unit": "%"}, {"measurement": "AUC", "setting": "[1]; human, plasma, oral, 4 mg", "result": 236, "unit": "ng·h/mL"}, {"measurement": "Cmax", "setting": "[1]; human, plasma, oral, 4 mg", "result": 36.2, "unit": "ng/mL"}, {"measurement": "Tmax", "setting": "[1]; human, plasma, oral, 4 mg", "result": 1, "unit": "h"}, {"measurement": "half-life", "setting": "[1]; human, plasma, oral, 4 mg", "result": 7.28, "unit": "h"}, {"measurement": "CL renal", "setting": "[1]; human, urine and plasma, oral, 4 mg", "result": 183, "unit": "mL/min"}, {"measurement": "AUC(0‐∞) ratio of geometric LS means, baricitinib + probenecid : baricitinib only (90% CI)", "setting": "[1]; observed", "result": "2.03 (1.91, 2.16) and 2.03(1.91‐2.16)"}, {"measurement": "CLr ratio of geometric LS means, baricitinib + probenecid : baricitinib only (90% CI)", "setting": "[1]; observed", "result": "0.313 (0.289, 0.339)"}, {"measurement": "Cmax ratio of geometric LS means, baricitinib + probenecid : baricitinib only (90% CI)", "setting": "[1]; observed", "result": "1.03 (0.940, 1.13)"}, {"measurement": "AUC(0‐∞) ratio of geometric LS means, baricitinib + probenecid : baricitinib only (90% CI)", "setting": "[1]; [5]", "result": "twofold; also recorded: doubled"}, {"measurement": "Cmax ratio of geometric LS means, baricitinib + probenecid : baricitinib only (90% CI)", "setting": "[1]; [5]", "result": 1.03}, {"measurement": "Observed/Predicted AUC ratio +/- probenecid", "setting": "OAT3", "result": 1.0}, {"measurement": "Observed/Predicted Cmax ratio +/- probenecid", "setting": "OAT3", "result": 0.9}, {"measurement": "pKa", "setting": "[2]", "result": 4}, {"measurement": "fraction unbound", "setting": "Plasma protein binding", "result": 0.5}, {"measurement": "ka (first-order absorption rate constant)", "setting": "[3]", "result": 1.2, "unit": "h^‐1"}, {"measurement": "eliminated unchanged in urine", "setting": "[4]", "result": "70 % of dose"}, {"measurement": "renal clearance", "setting": "[4]", "result": "~11", "unit": "L/h"}, {"measurement": "decrease in renal secretory clearance with cyclosporine", "setting": "[4]; single 600 mg dose of cyclosporine", "result": 30, "unit": "%"}]}]}
